Experimental data as given in ChEMBL document CHEMBL3509549.

How the values were obtained:
[1] = Arithmetic mean of AUC(0-infinity) of saquinavir mesylate following oral repeat dosing of 1000 mg Invirase Hard Gel Capsules capsules in healthy human; type: ADME, organism-based; conditions: both, plasma, read-out: AUC(0-infinity)
[2] = Mean exposure of saquinavir mesylate estimated by Cmax following oral repeat dosing of 1000 mg Invirase Film-coated tablet in healthy woman; type: ADME, organism-based; conditions: female, human, plasma
[3] = Geometric mean of AUC(0-infinity) of saquinavir mesylate following oral repeat dosing of 1000 mg Invirase Film-coated tablet in healthy human; type: ADME, organism-based; conditions: both, plasma, read-out: AUC(0-infinity)
[4] = Mean exposure of saquinavir mesylate estimated by AUC(0-infinity) following oral repeat dosing of 1000 mg Invirase Hard Gel Capsules capsules in healthy men; type: ADME, organism-based; conditions: male, human, plasma, read-out: AUC(0-infinity)
[5] = Arithmetic mean of AUC(0-infinity) of saquinavir mesylate following oral repeat dosing of 1000 mg Invirase Film-coated tablet in healthy human; type: ADME, organism-based; conditions: both, plasma, read-out: AUC(0-infinity)
[6] = Mean exposure of saquinavir mesylate estimated by Cmax following oral repeat dosing of 1000 mg Invirase Film-coated tablet in healthy men; type: ADME, organism-based; conditions: male, human, plasma
[7] = Mean exposure of saquinavir mesylate estimated by AUC(0-infinity) following oral repeat dosing of 1000 mg Invirase Film-coated tablet in healthy men; type: ADME, organism-based; conditions: male, human, plasma, read-out: AUC(0-infinity)
[8] = Median Tmax of saquinavir mesylate following oral repeat dosing of 1000 mg Invirase Film-coated tablet in healthy human; type: ADME, organism-based; conditions: both, plasma, read-out: Median Tmax
clinical [9] = conditions: both, human, plasma, po, 1000 mg
[10] = Arithmetic mean of Cmax of saquinavir mesylate following oral repeat dosing of 1000 mg Invirase Film-coated tablet in healthy human; type: ADME, organism-based; conditions: both, plasma
[11] = Minimum Tmax of saquinavir mesylate following oral repeat dosing of 1000 mg Invirase Hard Gel Capsules capsules in healthy human; type: ADME, organism-based, Plasma; conditions: in vivo
[12] = Mean exposure of saquinavir mesylate estimated by Cmax following oral repeat dosing of 1000 mg Invirase Film-coated tablet in healthy human; type: ADME, organism-based; conditions: both, plasma
[13] = Mean exposure of saquinavir mesylate estimated by Cmax following oral repeat dosing of 1000 mg Invirase Hard Gel Capsules capsules in healthy human; type: ADME, organism-based; conditions: both, plasma
[14] = Maximum Tmax of saquinavir mesylate following oral repeat dosing of 1000 mg Invirase Hard Gel Capsules capsules in healthy human; type: ADME, organism-based; conditions: both, plasma, read-out: Maximum Tmax
[15] = Median Tmax of saquinavir mesylate following oral repeat dosing of 1000 mg Invirase Hard Gel Capsules capsules in healthy human; type: ADME, organism-based; conditions: both, plasma, read-out: Median Tmax
[16] = Mean exposure of saquinavir mesylate estimated by AUC(0-infinity) following oral repeat dosing of 1000 mg Invirase Film-coated tablet in healthy woman; type: ADME, organism-based; conditions: female, human, plasma, read-out: AUC(0-infinity)
[17] = Geometric mean of Cmax of saquinavir mesylate following oral repeat dosing of 1000 mg Invirase Film-coated tablet in healthy human; type: ADME, organism-based; conditions: both, plasma
clinical [18] = conditions: both, human, plasma, po, 1000 mg; remark: listed apart in the source
[19] = Minimum Tmax of saquinavir mesylate following oral repeat dosing of 1000 mg Invirase Film-coated tablet in healthy human; type: ADME, organism-based; conditions: both, plasma, read-out: Minimum Tmax
[20] = Mean exposure of saquinavir mesylate estimated by Cmax following oral repeat dosing of 1000 mg Invirase Hard Gel Capsules capsules in healthy woman; type: ADME, organism-based; conditions: female, human, plasma
clinical [21] = conditions: both, human, plasma, po, 1000 mg; remark: listed apart in the source
clinical [22] = conditions: both, human, plasma, po, 1000 mg; remark: listed apart in the source
[23] = Mean exposure of saquinavir mesylate estimated by AUC(0-infinity) following oral repeat dosing of 1000 mg Invirase Hard Gel Capsules capsules in healthy woman; type: ADME, organism-based; conditions: female, human, plasma, read-out: AUC(0-infinity)
[24] = Mean exposure of saquinavir mesylate estimated by Cmax following oral repeat dosing of 1000 mg Invirase Hard Gel Capsules capsules in healthy men; type: ADME, organism-based; conditions: male, human, plasma
[25] = Maximum Tmax of saquinavir mesylate following oral repeat dosing of 1000 mg Invirase Film-coated tablet in healthy human; type: ADME, organism-based; conditions: both, plasma, read-out: Maximum Tmax
[26] = Geometric mean of Cmax of saquinavir mesylate following oral repeat dosing of 1000 mg Invirase Hard Gel Capsules capsules in healthy human; type: ADME, organism-based; conditions: both, plasma
[27] = Arithmetic mean of Cmax of saquinavir mesylate following oral repeat dosing of 1000 mg Invirase Hard Gel Capsules capsules in healthy human; type: ADME, organism-based; conditions: both, plasma

AUC(0-inf) [1]: 1190 ng·h/mL
Cmax [2]: 395 ng/mL
AUC(0-inf) [3]: 1240 ng·h/mL
AUC(0-inf) [4]: 1040 ng·h/mL
AUC(0-inf) [5]: 1510 ng·h/mL
Cmax [6]: 278 ng/mL
AUC(0-inf) [7]: 1030 ng·h/mL
Tmax [8]: 3.88 h
half-life (clinical [9]): 7.51 h
Cmax [10]: 404 ng/mL
Minimum Tmax [11]: 1 h
Cmax [12]: 332 ng/mL
Cmax [13]: 285 ng/mL
Tmax [14]: 10 h
Tmax [15]: 4.37 h
AUC(0-inf) [16]: 1480 ng·h/mL
Cmax [17]: 332 ng/mL
half-life (clinical [18]): 7.73 h
Tmax [19]: 1.02 h
Cmax [20]: 306 ng/mL
half-life (clinical [21]): 8.29 h
half-life (clinical [22]): 7.89 h
AUC(0-inf) [23]: 1090 ng·h/mL
Cmax [24]: 265 ng/mL
Tmax [25]: 6 h
Cmax [26]: 285 ng/mL
Cmax [27]: 348 ng/mL
SMILES: CC(C)(C)NC(=O)[C@@H]1C[C@@H]2CCCC[C@@H]2CN1C[C@@H](O)[C@H](Cc1ccccc1)NC(=O)[C@H](CC(N)=O)NC(=O)c1ccc2ccccc2n1
